# Assay results reported in patent publication US11925632B2, “Isoquinoline derivatives for use in treating GLUT1 deficiency syndrome” (GLIAPHARM SA, priority 2019, dated 2024).
# What was measured:
# Assay type in all cases: cell-based
# astrocytes = assay: Extracellular medium acidification (SNARF5) assay in astrocytes; conditions: Mus musculus, Astrocyte, 1.5 h; astrocytes in vitro, 90 min stimulation, 10 nM to 30 μM
# Protocol: Secretion of lactate was measured indirectly through the acidification of extracellular medium using extracellular pH sensor SNARE-5F-(AND-6)-CAR (SNARF5) as described below.
# Secretion of lactate was measured indirectly through the acidification of extracellular medium using extracellular pH sensor […] (SNARF5). After washing cells twice with stimulation medium (DMEM (D5030, Sigma), 1 mM […], and 5 mM Glucose, pH 7.4) at 37° C., cells were stimulated with compounds at a final concentration ranging from 10 nM to 30 μM in 50 μl per well of stimulation medium supplemented with 10 μM of SNARF5 (Life Technologies Corporation). Each compound was tested in two different plates for duplicates. After 90 min stimulation, fluorescence was read at exc. (excitation) 480 nm/emm. (emission) 580 nm and at exc 480 nm/emm. 630 nm. The ratio of fluorescence between 630 nm and 580 emission values, which is proportional to extracellular pH, was calculated. In each plate, 8 wells were used for negative controls (DMSO 0.1%) and 8 wells were used for positive controls (CCCP 2 μM in DMSO).
# Table 3 below lists compounds that are active on the extracellular medium acidification (SNARF5) assay in astrocytes in vitro, which indicates their ability to produce lactate. ‘+’ indicates activity of compounds with EC50>5 μM; ‘++’ indicates activity of compounds with EC50<5 μM.
# (§1) Primary cultures of cerebrocortical astrocytes were obtained from 1 to 2-day-old OF1 mouse pups (Charles River). Briefly, cortices were isolated and minced in small pieces under a dissecting microscope. The cells were incubated for 30 min at 37° C. in a solution containing 20 U/ml papain, 1 mM L-cysteine and 10 kU/ml DNase I. After dissociation, papain activity was stopped by the addition of fetal calf serum (FCS). Single-cell suspension was then obtained by mechanical dissociation, which consisted in cells trituration in a DMEM D7777 medium supplemented with 44 mm NaHCO3, 10 ml/L antibiotic/antimycotic solution and 10% FCS. The cells were seeded at an average density of ˜10′000 cells/cm^2 on poly-D-lysine coated 96- or 12-well culture plates, depending on their use, and grown in DMEM D7777 medium supplemented with 44 mm NaHCO3, 10 ml/L antibiotic/antimycotic solution and 10% FCS at 37° C. in a humidified atmosphere containing 5% CO2/95% air. Culture medium was renewed twice a week. Cells were stimulated and harvested between DIV14 and DIV17, when confluence and cell growth were optimal.
# primary mouse astrocytes = assay: Extracellular lactate quantification (lactate release from primary astrocytes); conditions: Astrocyte, 1.5 h; for EC50: primary mouse astrocytes, 90 min stimulation, read-out: EC50 of astrocyte-mediated lactate secretion; for Emax: Mus musculus, positive control CCCP 2 μM, 90 min, read-out: Maximal effect on lactate secretion compared to the effect of the positive control (100%)
# Protocol: as §1
# Secretion of L-lactate was measured in the extracellular medium of 96-well plated astrocytes after 90 min stimulation (at 37° C., in 5% CO2/95% air conditions) with Vehicle (DMSO), the compounds of the invention (100 nM to 100 μM) or positive control. […] Stimulation medium was composed of D5030 medium complemented with 5 mM D-glucose and 44 mM sodium bicarbonate, pH 7.2. To quantify lactate concentrations in the extracellular medium, 200 μl of a 0.2M Glycine-semicarbazide buffer (pH 10) containing 3 mM NAD and 14 U/ml LDH was added to each well of a 96-well plate containing 30 μl aliquots of extracellular medium. Samples were incubated at 37° C. for 1 h. Fluorescence intensity (340 nm excitation/450 nm emission), which represents the amount of NADH produced, was measured, and lactate concentration values were determined relative to a standard curve of L-lactate concentrations.
# The release of lactate from primary mouse astrocytes treated with compound (1) at 10 μM was quantified by (FIG. 1). Accumulation of lactate in the extracellular medium was measured over a period of 1.5 h. […] Maximal effects of the compounds were 38.6% (1), 38% (2), 31% (4) and 76% (3) when compared to the effect of the positive control (100%) for compounds (1) to (4), respectively.
# primary astrocytes = assay: MTT mitochondrial activity assay; conditions: Mus musculus, Astrocyte, 24 h treatment
# Protocol: as §1
# To monitor mitochondrial activity in astrocytes, which is linked to the metabolic process of glycolysis and production of lactate, astrocytes in 96-well plates were stimulated for 24 h (37° C. 5% CO2/95% air) with the compounds of the invention ranging from 0.2 to 200 μM.
# After stimulation, 5 mg/ml thiazol blue tetrazolium bromide (MTT) in D5030 medium complemented with 5 mM D-glucose and 44 mM sodium bicarbonate (pH 7.2) was added to each well, and cells were incubated for 4 h at 37° C. (5% CO2). The medium was then removed and the amount of reduced MTT, i.e. formazan, solubilized in DMSO (50 μl/well) was determined using a spectrophotometer (absorbance of 570 nm).
# The mitochondrial activity in primary astrocytes treated with Compounds (1) to (4) at concentrations ranging from 1 nM to 200 μM. After 24 h, mitochondrial activity was monitored in MTT colorimetric assay as described above (FIG. 3).
SMILES,EC50 (astrocytes),also measured
"COc1cc2ccnc(Nc3ccc(C(F)(F)F)cc3)c2cc1OC [Example 2, 6,7-dimethoxy-N-(4-(trifluoromethyl)phenyl)isoquinolin-1-amine]",> 5 µM,EC50 (primary mouse astrocytes): 10.1 µM; Emax (primary mouse astrocytes): 38%; IC50 (primary astrocytes): 42.9 µM
"FC(F)(F)Oc1ccc(Nc2nccc3ccccc23)cc1 [Example 3, N-(4-(trifluoromethoxy)phenyl)isoquinolin-1-amine]",> 5 µM,EC50 (primary mouse astrocytes): 10.9 µM; Emax (primary mouse astrocytes): 76%; IC50 (primary astrocytes): 26.6 µM
"COc1cc2ccnc(Nc3ccc(C)cc3)c2cc1OC [Example 6, 6,7-dimethoxy-N-(p-tolyl)isoquinolin-1-amine]",> 5 µM,–
"COc1ccc(Nc2nccc3cc(OC)c(OC)cc23)cc1 [Example 7, 6,7-dimethoxy-N-(4-methoxyphenyl)isoquinolin-1-amine]",> 5 µM,–
"COCCOc1ccc(Nc2nccc3cc(OC)c(OC)cc23)cc1 [Example 8, 6,7-dimethoxy-N-(4-(2-methoxyethoxy)phenyl)isoquinolin-1-amine]",> 5 µM,–
"COCc1ccc(Nc2nccc3cc(OC)c(OC)cc23)cc1 [Example 9, 6,7-dimethoxy-N-(4-(methoxymethyl)phenyl)isoquinolin-1-amine]",> 5 µM,–
"COc1cc2ccnc(Nc3cccc(OC(F)(F)F)c3)c2cc1OC [Example 11, 6,7-dimethoxy-N-(3-(trifluoromethoxy)phenyl)isoquinolin-1-amine]",< 5 µM,–
"FC(F)(F)Oc1ccc(Nc2nccc3cc(Cl)ccc23)cc1 [Example 13, 6-chloro-N-(4-(trifluoromethoxy)phenyl)isoquinolin-1-amine]",> 5 µM,–
"COc1cc2ccnc(Nc3ccc(OC(F)(F)F)c(F)c3)c2cc1OC [Example 14, N-(3-fluoro-4-(trifluoromethoxy)phenyl)-6,7-dimethoxyisoquinolin-1-amine]",> 5 µM,–
"COc1cc2ccnc(Nc3cccc(OC(F)F)c3)c2cc1OC [Example 16, N-(3-(difluoromethoxy)phenyl)-6,7-dimethoxyisoquinolin-1-amine]",< 5 µM,–
"COc1ccc2c(Nc3ccc(OC(F)(F)F)cc3)nccc2c1C [Example 21, 6-methoxy-5-methyl-N-(4-(trifluoromethoxy)phenyl)isoquinolin-1-amine]",< 5 µM,–
"COc1ccc2c(Nc3ccc(OC(F)(F)F)cc3)ncc(Br)c2c1 [Example 25, 4-bromo-6-methoxy-N-(4-(trifluoromethoxy)phenyl)isoquinolin-1-amine]",> 5 µM,–
"COC(=O)c1ccc2c(Nc3ccc(OC(F)(F)F)cc3)nccc2c1 [Example 29, methyl 1-((4-(trifluoromethoxy)phenyl)amino)isoquinoline-6-carboxylate]",< 5 µM,–
"CCc1ccc2c(Nc3ccc(OC(F)(F)F)cc3)nccc2c1 [Example 30, 6-ethyl-N-(4-(trifluoromethoxy)phenyl)isoquinolin-1-amine]",< 5 µM,–

# Continued, in another order:
EC50 (astrocytes),SMILES,also measured
> 5 µM,"COc1cc2ccnc(Cc3ccc(OC(F)(F)F)cc3)c2cc1OC [Example 4, 6,7-dimethoxy-1-(4-(trifluoromethoxy)benzyl)isoquinoline]",EC50 (primary mouse astrocytes): 10.5 µM; Emax (primary mouse astrocytes): 31%; IC50 (primary astrocytes): 5.5 µM
> 5 µM,"COc1ccc(Nc2nccc3cc(OC)c(OC)cc23)cc1OC [Example 5, N-(3,4-dimethoxyphenyl)-6,7-dimethoxyisoquinolin-1-amine]",–
> 5 µM,"COc1cc2ccnc(Nc3ccc(OC(F)(F)F)cc3F)c2cc1OC [Example 10, N-(2-fluoro-4-(trifluoromethoxy)phenyl)-6,7-dimethoxyisoquinolin-1-amine]",–
> 5 µM,"COc1ccc2c(Nc3ccc(OC(F)(F)F)cc3)nccc2c1 [Example 12, 6-methoxy-N-(4-(trifluoromethoxy)phenyl)isoquinolin-1-amine]",–
> 5 µM,"COc1cc2ccnc(Nc3cccc(N(C)C)c3)c2cc1OC [Example 15, N^1-(6,7-dimethoxyisoquinolin-1-yl)-N^3,N^3-dimethylbenzene-1,3-diamine]",–
> 5 µM,"COc1cc2ccnc(Nc3ccc(C#N)cc3C(F)(F)F)c2cc1OC [Example 17, 4-((6,7-dimethoxyisoquinolin-1-yl)amino)-3-(trifluoromethyl)benzo-nitrite]",–
> 5 µM,"COc1cc2ccnc(Nc3ccc(SC)cc3)c2cc1OC [Example 18, 6,7-dimethoxy-N-(4-(methylthio)phenyl)isoquinolin-1-amine]",–
< 5 µM,"COc1cc2ccnc(Nc3ccc(OC(F)(F)F)c(Cl)c3)c2cc1OC [Example 19, N-(3-chloro-4-(trifluoromethoxy)phenyl)-6,7-dimethoxyisoquinolin-1-amine]",–
< 5 µM,"COCCc1ccc(Nc2nccc3cc(OC)c(OC)cc23)cc1 [Example 20, 6,7-dimethoxy-N-(4-(2-methoxyethyl)phenyl)isoquinolin-1-amine]",–
> 5 µM,"COc1ccc2c(Nc3ccc(OC(F)(F)F)cc3)ncc(C)c2c1 [Example 24, 6-methoxy-4-methyl-N-(4-(trifluoromethoxy)phenyl)isoquinolin-1-amine]",–
< 5 µM,"CN(C)c1ccc2c(Nc3ccc(OC(F)(F)F)cc3)nccc2c1 [Example 27, N^6,N^6-dimethyl-N^1-(4-(trifluoromethoxy)phenyl)isoquinoline-1,6-diamine]",–
